In patent US12060355B2, “Compounds for use in the treatment of fascioliasis” (Merck Patent GmbH, priority 2018, dated 2024):
Where two headings read alike, the source gives them in different places. One block for each compound: values may come before it.

How the values were obtained:
human HepG2 cell lines = assay type: cell-based; details: human HepG2 cell line
human MRC-5 cell line = assay: Cytotoxicity against human MRC-5 cell line; assay type: cell-based
Procedure: (§1) The routine biological assays using adult or juvenile S. mansoni worms and cytotoxicity assays using MRC-5 cells have been disclosed previously in Mansour, N. R., et al. (2016). “High Throughput Screening Identifies Novel Lead Compounds with Activity against Larval, Juvenile and Schistosoma mansoni PLoS Negl Trop Dis 10(4): e0004659. Cytotoxicity assays using the HepG2 cell line were carried out as described in Molecular Diversity (2015) 19, 251-261. • (a) F. hepatica adult fluke motility score tested at 5 μM. Motility is scored as per the table below: • Good movement Score 1 • (Curled, sticking on wall, movement on petri plate or conical flask) • Moderate movement Score 2 • (Less vigor but more than 10 seconds pulses or peristaltic waves) • Resting Score 3 • (Less than 10 second pulses in head and body) • Apathetic Score 4 • (Head and body with less than 2 second pulses) • Faint movement of suckers Score 5 • (Movement of oral or ventral suckers only, whole body paralyzed) • Inert Score 6 • (No movement at all or dead) • (b) S. mansoni adult worms • (c) S. mansoni juvenile worms • (d) S. haemotobium adult worms • (e) Cytotoxicity against human MRC-5 cell line • (f) Cytotoxicity against human HepG2 cell lines

[1] = tested on: S. mansoni juvenile worms; assay: S. mansoni juvenile worm assay, in vitro; assay type: cell-based; details: Schistosoma mansoni, read-out: S. mansoni Juvenile
Procedure: as §1

S. mansoni adult worms = assay: S. mansoni adult worm assay, in vitro; assay type: cell-based; details: Schistosoma mansoni, read-out: S. mansoni Adult
Procedure: as §1

F. hepatica adult fluke = F. hepatica adult fluke motility score, in vitro; assay type: cell-based, Fasciola hepatica; design: key: Good movement Score 1 • (Curled, sticking on wall, movement on petri plate or conical flask); Moderate movement Score 2 • (Less vigor but more than 10 seconds pulses or peristaltic waves); Resting Score 3 • (Less than 10 second pulses in head and body); Apathetic Score 4 • (Head and body with less than 2 second pulses); Faint movement of suckers Score 5 • (Movement of oral or ventral suckers only, whole body paralyzed); Inert Score 6 • (No movement at all or dead); details: for F. hepatica motility score after 24 h / F. hepatica motility score after 48 h / F. hepatica motility score after 72 h: adult fluke
Excerpt: The routine biological assays using adult liver fluke are described in Alessandra Crusco, Cinzia Bordoni, Anand Chakroborty, Kezia C. L. Whatley, Helen Whiteland, Andrew D. Westwell, Karl F. Hoffmann, “Design, synthesis and anthelmintic activity of 7-keto-sempervirol analogues”, European Journal of Medicinal Chemistry, Volume 152, 2018, Pages 87-100.
The routine biological assays using adult or juvenile S. mansoni worms and cytotoxicity assays using MRC-5 cells have been disclosed previously in Mansour, N. R., et al. (2016). “High Throughput Screening Identifies Novel Lead Compounds with Activity against Larval, Juvenile and Schistosoma mansoni PLoS Negl Trop Dis 10(4): e0004659. […] Motility is scored as per the table below: • Good movement Score 1 • (Curled, sticking on wall, movement on petri plate or conical flask) • Moderate movement Score 2 • (Less vigor but more than 10 seconds pulses or peristaltic waves) • Resting Score 3 • (Less than 10 second pulses in head and body) • Apathetic Score 4 • (Head and body with less than 2 second pulses) • Faint movement of suckers Score 5 • (Movement of oral or ventral suckers only, whole body paralyzed) • Inert Score 6 • (No movement at all or dead) • (b) S. mansoni adult worms • (c) S. mansoni juvenile worms • (d) S. haemotobium adult worms • (e) Cytotoxicity against human MRC-5 cell line • (f) Cytotoxicity against human HepG2 cell lines

[2] = 5 μM, score 1 (good movement) to 6 (inert)

Compound: COc1ccc(-c2c(C(C)C)nc3cnc(-c4cccc(C(F)(F)F)c4)cn23)cc1O [Example 1, 2-methoxy-5-[2-(propan-2-yl)-6-[3-(trifluoromethyl)phenyl]imidazo[1,2-a]pyrazin-3-yl]phenol]
Cytotox HepG2 (human HepG2 cell lines): >11.1 µM
Cytotox MRC-5 (human MRC-5 cell line): 21.8 µM

Compound: CC(C)c1nc2cnc(-c3cccc(C(F)(F)F)c3)cn2c1-c1ccc(OP(=O)(O)O)cc1F [Example 3, 3-fluoro-4-[2-(propan-2-yl)-6-[3-(trifluoromethyl)phenyl]imidazo[1,2-a]pyrazin-3-yl]phenoxyphosphonic acid]
Cytotox HepG2 (human HepG2 cell lines): 9.2 µM
IC50 [1]: 130 nM
IC50 (S. mansoni adult worms): < 49 nM

Compound: Cc1nc2cnc(-c3cccc(C(F)(F)F)c3)cn2c1-c1ccc(O)cc1F [Example 6, 3-fluoro-4-[2-methyl-6-[3-(trifluoromethyl)phenyl]imidazo[1,2-a]pyrazin-3-yl]phenol]
Cytotox MRC-5 (human MRC-5 cell line): 15.8 µM

Compound: CCc1nc2cnc(-c3cccc(C(F)(F)F)c3)cn2c1-c1ccc(OC)c(O)c1 [Example 7, 2-methoxy-5-[2-ethyl-6-[3-(trifluoromethyl)phenyl]imidazo[1,2-a]pyrazin-3-yl]phenol]
Cytotox HepG2 (human HepG2 cell lines): >30 µM
Cytotox MRC-5 (human MRC-5 cell line): >50 µM

Compound: CCc1nc2cnc(-c3cccc(C(F)(F)F)c3)cn2c1-c1ccc(O)cc1F [Example 8, 3-fluoro-4-[2-ethyl-6-[3-(trifluoromethyl)phenyl]imidazo[1,2-a]pyrazin-3-yl]phenol]
Cytotox HepG2 (human HepG2 cell lines): 18.7 µM
Cytotox MRC-5 (human MRC-5 cell line): 17.3 µM

Compound: CC(C)c1nc2cnc(-c3cccc(C(F)(F)F)c3)cn2c1-c1ccc(O)cc1F [Example 9, 3-fluoro-4-[2-(propan-2-yl)-6-[3-(trifluoromethyl)phenyl]imidazo[1,2-a]pyrazin-3-yl]phenol]
Cytotox HepG2 (human HepG2 cell lines): 9 µM
Cytotox MRC-5 (human MRC-5 cell line): 13.7 µM

Compound: Cc1nc2cnc(-c3ccc(F)c(C(F)(F)F)c3)cn2c1-c1ccc(O)cc1F [Example 10, 3-fluoro-4-[2-methyl-6-[4-fluoro-3-(trifluoromethyl)phenyl]imidazo[1,2-a]pyrazin-3-yl]phenol]
Cytotox HepG2 (human HepG2 cell lines): >11.1 µM
Cytotox MRC-5 (human MRC-5 cell line): 14.4 µM

Compound: COc1ccc(-c2c(C(C)C)nc3cnc(-c4cccc(C(F)(F)F)c4)cn23)cc1OP(=O)(O)O [Example 28, 2-methoxy-5-[2-(propan-2-yl)-6-[3-(trifluoromethyl)phenyl]imidazo[1,2-a]pyrazin-3-yl]phenoxyphosphonic acid]
Cytotox HepG2 (human HepG2 cell lines): 19.2 µM
IC50 [1]: 183 nM

Compound: CC(C)c1nc2cnc(-c3ccc(F)c(C(F)(F)F)c3)cn2c1-c1c(F)cc(OP(=O)(O)O)cc1F [Example 40, 3,5-difluoro-4-{6-[4-fluoro-3-(trifluoromethyl)phenyl]-2-(propan-2-yl)imidazo[1,2-a]pyrazin-3-yl}phenoxyphosphonic acid]
Cytotox HepG2 (human HepG2 cell lines): 6.5 µM
IC50 [1]: 25 nM
IC50 (S. mansoni adult worms): 27 nM

Compound: Cc1nc2cnc(-c3ccc(F)c(C(F)(F)F)c3)cn2c1-c1c(F)cc(OP(=O)(O)O)cc1F [Example 41, 3,5-difluoro-4-{6-[4-fluoro-3-(trifluoromethyl)phenyl]-2-methyl-imidazo[1,2-a]pyrazin-3-yl}phenoxyphosphonic acid]
Cytotox HepG2 (human HepG2 cell lines): 6.8 µM
IC50 [1]: 100 nM

Compound: CC(C)c1nn2cnc(-c3ccc(F)c(C(F)(F)F)c3)cc2c1-c1c(F)cc(O)cc1F [Example 47, 3,5-difluoro-4-(5-(4-fluoro-3-(trifluoromethyl)phenyl)-2-isopropylpyrazolo[1,5-c]pyrimidin-3-yl)phenol]
F. hepatica motility score after 24 h (F. hepatica adult fluke; [2]): (6, 6, 6) at 5 μM
F. hepatica motility score after 48 h (F. hepatica adult fluke; 5 μM, score 1 to 6 (inert)): (6, 6, 6) at 5 μM
F. hepatica motility score after 72 h (F. hepatica adult fluke; 5 μM, score 1 to 6 (inert)): (6, 6, 6) at 5 μM
Cytotox HepG2 (human HepG2 cell lines): 8.9 µM

Compound: Fc1ccc(-c2cn3c(-c4ccc5[nH]ncc5c4F)c(C(F)(F)F)nc3cn2)cc1C(F)(F)F [Example 50, 3-(4-Fluoro-1H-indazol-5-yl)-6-(4-fluoro-3-trifluoromethylphenyl)-2-trifluoromethyl-imidazo[1,2-a]pyrazine]
Mean motility score of F hepatica at 24 h (F. hepatica adult fluke; 0.04 μM): 1, 1, 1
Mean motility score of F hepatica at 48 h (F. hepatica adult fluke; 0.04 μM): 1, 1, 1
Mean motility score of F hepatica at 72 h (F. hepatica adult fluke; 0.04 μM): 1, 1, 1
Mean motility score of F hepatica at 24 h (F. hepatica adult fluke; 0.2 μM): 2
Mean motility score of F hepatica at 48 h (F. hepatica adult fluke; 0.2 μM): 2
Mean motility score of F hepatica at 72 h (F. hepatica adult fluke; 0.2 μM): 2.5
Mean motility score of F hepatica at 24 h (F. hepatica adult fluke; 1 μM): 6, 6, 6
Mean motility score of F hepatica at 48 h (F. hepatica adult fluke; 1 μM): 6, 6, 6
Mean motility score of F hepatica at 72 h (F. hepatica adult fluke; 1 μM): 6, 6, 6
Mean motility score of F hepatica at 24 h (F. hepatica adult fluke; 5 μM): 6, 6, 6
Mean motility score of F hepatica at 48 h (F. hepatica adult fluke; 5 μM): 6, 6, 6
Mean motility score of F hepatica at 72 h (F. hepatica adult fluke; 5 μM): 6, 6, 6
F. hepatica motility score after 24 h (F. hepatica adult fluke; [2]): (6, 6, 6) at 5 μM
F. hepatica motility score after 48 h (F. hepatica adult fluke; 5 μM, score 1 to 6 (inert)): (6, 6, 6) at 5 μM
F. hepatica motility score after 72 h (F. hepatica adult fluke; 5 μM, score 1 to 6 (inert)): (6, 6, 6) at 5 μM

IC50 ([1]; juvenile worms in vitro, IC50): 830 nM
Compound: Cc1n[nH]c2ccc(-c3c(C(C)C)nc4cnc(-c5cccc(C(F)(F)F)c5)cn34)cc12 [Example 51, 2-Isopropyl-3-(3-methyl-1H-indazol-5-yl)-6-(3-trifluoromethyl-phenyl)-imidazo[1,2-a]pyrazine]
Cytotox HepG2 (human HepG2 cell lines): 10.3 µM

Compound: O=P(O)(O)Oc1cc(F)c(-c2c(C3CC3)nc3cnc(-c4ccc(F)c(C(F)(F)F)c4)cn23)c(F)c1 [Example 62, Phosphoric acid mono-{4-[2-cyclopropyl-6-(4-fluoro-3-trifluoromethyl-phenyl)-imidazo[1,2-a]pyrazin-3-yl]-3,5-difluoro-phenyl} ester]
Cytotox HepG2 (human HepG2 cell lines): 14.8 µM
IC50 [1]: 3.7 nM

Compound: CC(C)c1nc2cnc(-c3ccc(F)c(C(F)(F)F)c3)nc2n1-c1c(F)cc(O)cc1F [Example 89, 3,5-Difluoro-4-[2-(4-fluoro-3-trifluoromethyl-phenyl)-8-isopropyl-purin-9-yl]-phenol]
F. hepatica motility score after 24 h (F. hepatica adult fluke; [2]): (6, 6, 6)
F. hepatica motility score after 48 h (F. hepatica adult fluke; 5 μM, score 1 to 6 (inert)): (6, 6, 6)
F. hepatica motility score after 72 h (F. hepatica adult fluke; 5 μM, score 1 to 6 (inert)): (6, 6, 6)
Cytotox HepG2 (human HepG2 cell lines): 4.8 µM

IC50 ([1]; juvenile worms in vitro, IC50): 530 nM
Compound: COc1ccc(-c2c(C)nc3ccc(-c4cccc(C(F)(F)F)c4)cn23)cc1O [Example 91, 2-methoxy-5-[2-methyl-6-[3-(trifluoromethyl)phenyl]imidazo[1,2-a]pyridin-3-yl]phenol]

IC50 ([1]; juvenile worms in vitro, IC50): 360 nM
Compound: COc1ccc(-c2c(C(C)C)nc3ccc(-c4cccc(C(F)(F)F)c4)cn23)cc1O [Example 92, 2-methoxy-5-[2-isopropyl-6-[3-(trifluoromethyl)phenyl]imidazo[1,2-a]pyridin-3-yl]phenol]

IC50 ([1]; juvenile worms in vitro, IC50): 830 nM
Compound: Cc1nc2ccc(-c3cccc(C(F)(F)F)c3)cn2c1-c1ccc(O)cc1F [Example 93, 3-fluoro-4-[2-methyl-6-[3-(trifluoromethyl)phenyl]imidazo[1,2-a]pyridin-3-yl]phenol]

IC50 ([1]; juvenile worms in vitro, IC50): 250 nM
Compound: CC(C)c1nc2ccc(-c3cccc(C(F)(F)F)c3)cn2c1-c1ccc(O)cc1F [Example 94, 3-fluoro-4-[2-isopropyl-6-[3-(trifluoromethyl)phenyl]imidazo[1,2-a]pyridin-3-yl]phenol]
F. hepatica motility score after 24 h (F. hepatica adult fluke; [2]): (6, 6, 6)
F. hepatica motility score after 48 h (F. hepatica adult fluke; 5 μM, score 1 to 6 (inert)): (6, 6, 6)
F. hepatica motility score after 72 h (F. hepatica adult fluke; 5 μM, score 1 to 6 (inert)): (6, 6, 6)
Cytotox HepG2 (human HepG2 cell lines): 10.6 µM

Compound: CSc1nc2cc(Cl)c(Oc3cccc(Cl)c3Cl)cc2[nH]1 [Triclabendazole, reference compound]
Mean motility score of F hepatica at 24 h (F. hepatica adult fluke; 40 μM): 2
Mean motility score of F hepatica at 48 h (F. hepatica adult fluke; 40 μM): 3.5
Mean motility score of F hepatica at 72 h (F. hepatica adult fluke; 40 μM): 6
F. hepatica motility score after 24 h (F. hepatica adult fluke; 40 μM, score 1 to 6 (inert)): 3
F. hepatica motility score after 48 h (F. hepatica adult fluke; 40 μM, score 1 to 6 (inert)): 6
F. hepatica motility score after 72 h (F. hepatica adult fluke; 40 μM, score 1 to 6 (inert)): 6
